{
  "source": "ChEMBL document CHEMBL1133872",
  "about": "“Modelling studies of the active site of human sorbitol dehydrogenase: an approach to structure-based inhibitor design of the enzyme” (Bioorg Med Chem Lett, 2001)",
  "molecular_target": "T1, Sorbitol dehydrogenase (Homo sapiens, UniProt Q00796)",
  "T1 sequence (Q00796 whole entry)": "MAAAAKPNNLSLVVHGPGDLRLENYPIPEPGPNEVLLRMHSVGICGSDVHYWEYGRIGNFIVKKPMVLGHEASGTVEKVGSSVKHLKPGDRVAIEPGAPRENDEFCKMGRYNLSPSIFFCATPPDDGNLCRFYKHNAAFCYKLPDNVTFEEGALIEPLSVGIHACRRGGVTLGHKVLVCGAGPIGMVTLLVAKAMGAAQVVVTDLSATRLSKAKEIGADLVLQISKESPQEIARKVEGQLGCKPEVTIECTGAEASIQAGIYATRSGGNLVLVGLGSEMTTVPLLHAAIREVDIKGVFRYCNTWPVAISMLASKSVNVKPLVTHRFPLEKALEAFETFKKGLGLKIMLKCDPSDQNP",
  "assay": "Concentration required for inhibitory activity against human sorbitol dehydrogenase (SDH)",
  "data": [
    {"smiles": "CN(C)S(=O)(=O)N1CCN(c2ccnc(CO)n2)CC1", "values": [
      {"measurement": "IC50", "result": 1, "unit": "µM"}
    ]}
  ]
}
